Columns and labels:
[1] = tested on: Bacillus subtilis (ATCC 6633); assay: microbe, parasite or virus in culture; assay type: cell-based; conditions: 37° C., 20 μl of 1 mg/ml test solution on 6 mm filter, 1 to 3 days
Protocol: (§1) The compounds were dissolved in water with 10% MeOH to a final concentration of 1 mg/ml. For the bioassay sterile Nunc plates with a size of 24×24 cm were used. For one plate 200 ml of agar were used. The agar was cooled after autoclaving to 55° C. and 2-4 ml of culture suspension of the test organism were added before plating. To each plate 64 filter plates with 6 mm in diameter were added. To each filter 20 μl of the test solution were added and incubated for 1 to 3 days at 28° C. or 37° C. The inhibition zone in mm was reported. For a detailed description of the methods, see Bauer et al., Amer. J. Clin. Pathol. 1966, 45, 493-496; Müller & Melchinger, Methoden in der Mikrobiologie, Franckhsche Verlagshandlung, Stuttgart (1964); Mueller & Hinton, Proc. Soc. Expt. Biol. Med. 1941, 48, 330-333.

[2] = tested on: Streptomyces murinus (DSM 40091); assay: microbe, parasite or virus in culture; assay type: cell-based; conditions: 28° C., 20 μl of 1 mg/ml test solution on 6 mm filter, 1 to 3 days
Protocol: as §1

[3] = tested on: SNI mouse model of neuropathic pain; assay: Spared nerve injury (SNI) mouse model of neuropathic pain, tactile allodynia by automatic von Frey test; assay type: in vivo, C57B6 mice; conditions: 3 mg/kg intravenous single application
Excerpt: Labyrinthopeptin A1 was studied in the spared nerve injury (SNI) mouse model of neuropathic pain in order to proof the activity on tactile allodynia. Under general anesthesia, the two major branches of the sciatic nerve in adult male C57B6 mice (weight: 22.8 g+/−0.35 SEM) have been ligated and transsected, with the sural nerve left intact. Tactile allodynia has been determined with the automatic von Frey test: using a dump needle stick, the plantar skin of hind paws was exposed to a pressure stimulus of increasing intensity up to 5 g. The force in grams at which the animal responded with hindpaw withdrawal was used as a read-out for tactile allodynia. The study was performed 7 days after nerve lesion over 6 hours with an additional measurement after 24 hours. Within two days after nerve transsection, tactile allodynia developed completely and remained stable over at least two weeks. The compound was administered intravenous as a single application (3 mg/kg). As a vehicle for the intravenous application was the 1:1:18 (ethanol:solutol: phosphate buffered saline) vehicle chosen.
The effect was gone 24 hours after application. […] The percent benefit of the treatment was evaluated using the |AUC1-6 hour| values of the ipsilateral vehicle group (0% benefit) and all |AUC1-6 hour| values of the contralateral sides of all three groups (100% benefit=maximal possible effect). […]

C/C=C1\NC(=O)[C@H](Cc2ccccc2)NC(=O)[C@@H]2CCCN2C(=O)[C@H](C(C)C)NC(=O)[C@H](Cc2c[nH]c3ccccc23)NC(=O)[C@]23CSC[C@H](NC1=O)C(=O)N[C@H](C(=O)NCc1ccccc1)CSSC[C@@H](NC(=O)[C@@H]1CSC[C@]4(C[C@H](NC(=O)OC(C)(C)C)C(=O)N[C@@H](CC(N)=O)C(=O)N[C@@H](C)C(=O)N4)C(=O)N[C@@H](C(C)C)C(=O)N[C@@H](Cc4c[nH]c5ccccc45)C(=O)N[C@@H](CCC(=O)NCc4ccccc4)C(=O)N1)C(=O)N[C@@H](C2)C(=O)N[C@@H]([C@@H](C)O)C(=O)NCC(=O)N3 was tested, and the “inhibition zone, Bacillus subtilis (ATCC 6633)” value (“inhibition zone … (ATCC 6633)” below) [1] was 9 mm and the “inhibition zone, Streptomyces murinus (DSM 40091)” value (“inhibition zone … (DSM 40091)” for short) [2] was 7 mm.

In the case of C/C=C1\NC(=O)[C@H](Cc2ccccc2)NC(=O)[C@@H]2CCCN2C(=O)[C@H](C(C)C)NC(=O)[C@H](Cc2c[nH]c3ccccc23)NC(=O)[C@]23CSC[C@H](NC1=O)C(=O)N[C@H](C(=O)O)CSSC[C@@H](NC(=O)[C@@H]1CSC[C@]4(C[C@H](NC(=O)OC(C)(C)C)C(=O)N[C@@H](CC(N)=O)C(=O)N[C@@H](C)C(=O)N4)C(=O)N[C@@H](C(C)C)C(=O)N[C@@H](Cc4c[nH]c5ccccc45)C(=O)N[C@@H](CCC(=O)O)C(=O)N1)C(=O)N[C@@H](C2)C(=O)N[C@@H]([C@@H](C)O)C(=O)NCC(=O)N3 [Labyrinthopeptin A1 derivative, Ex. 16], the “inhibition zone … (ATCC 6633)” value [1] is reported as 9 mm and the “inhibition zone … (DSM 40091)” value [2] is reported as 0 mm.

With C/C=C1\NC(=O)[C@H](Cc2ccccc2)NC(=O)[C@@H]2CCCN2C(=O)[C@H](C(C)C)NC(=O)[C@H](Cc2c[nH]c3ccccc23)NC(=O)[C@]23CSC[C@H](NC1=O)C(=O)N[C@H](C(=O)O)CSSC[C@@H](NC(=O)[C@@H]1CSC[C@]4(C[C@H](NC(=O)OCCCCC)C(=O)N[C@@H](CC(N)=O)C(=O)N[C@@H](C)C(=O)N4)C(=O)N[C@@H](C(C)C)C(=O)N[C@@H](Cc4c[nH]c5ccccc45)C(=O)N[C@@H](CCC(=O)O)C(=O)N1)C(=O)N[C@@H](C2)C(=O)N[C@@H]([C@@H](C)O)C(=O)NCC(=O)N3 [Labyrinthopeptin A1 derivative, Ex. 18] the “inhibition zone … (ATCC 6633)” value [1] was 8 mm and the “inhibition zone … (DSM 40091)” value [2] was 7 mm.

For C/C=C1\NC(=O)[C@H](Cc2ccccc2)NC(=O)[C@@H]2CCCN2C(=O)[C@H](C(C)C)NC(=O)[C@H](Cc2c[nH]c3ccccc23)NC(=O)[C@]23CSC[C@H](NC1=O)C(=O)N[C@H](C(=O)O)CSSC[C@@H](NC(=O)[C@@H]1CSC[C@]4(C[C@H](N)C(=O)N[C@@H](CC(N)=O)C(=O)N[C@@H](C)C(=O)N4)C(=O)N[C@@H](C(C)C)C(=O)N[C@@H](Cc4c[nH]c5ccccc45)C(=O)N[C@@H](CCC(=O)O)C(=O)N1)C(=O)N[C@@H](C2)C(=O)N[C@@H]([C@@H](C)O)C(=O)NCC(=O)N3 [Labyrinthopeptin A1], the “inhibition zone … (ATCC 6633)” value [1] was 16.5 mm, the “inhibition zone … (DSM 40091)” value [2] was 13 mm and the “percent benefit of the treatment from |AUC1-6 hour| of paw withdrawal threshold” value ([3]; 7 days after nerve lesion, 0% = ipsilateral vehicle, 100% = contralateral sides) was 95 % benefit. The “treatment effect on delta |AUC1-6 hour| of paw withdrawal threshold (1-way ANOVA, Dunnett analysis)” value ([3]; vs vehicle) was “significant treatment effects”.

With CN(C)[C@@H]1C(O)=C(C(N)=O)C(=O)[C@@]2(O)C(O)=C3C(=O)c4c(O)cccc4[C@@](C)(O)[C@H]3C[C@@H]12 [Tetracycline, reference compound] the zone of inhibition at 1000 µg/mL ([1]; Bacillus subtilis, ATCC6633) was 32 mm and the zone of inhibition at 1000 µg/mL ([2]; Streptomyces murinus, DSM40091) was 24 mm.

— patent publication US20110144001A1, “HIGHLY BRIDGED PEPTIDES FROM ACTINOMADURA NAMIBIENSIS” (SANOFI-AVENTIS, priority 2008, published 2011)
